Where a name gives a salt, the structure may show the parent alone.

Usually EC50 stands for the midpoint of the concentration-response curve.

For this test, the target named is T1, human 5-HT4(a) (Homo sapiens, UniProt Q13639).
T1 construct: host or cells: GeneBlAzer HTR4-CRE-bla CHO-K1 cells
Briefly: Evaluation of agonistic activity in CHO-K1 cells expressing human 5-HT4(a) (GeneBlAzer HTR4-CRE-bla CHO-K1, beta-lactamase reporter). The following applies: CHO-K1 cells stably expressing human 5-HT4(a). The test is classed as cell-based. A digest of the protocol:
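Agonism read as CRE-driven β-lactamase activity: emission ratio 465/535 nm (excitation 410 nm) after 2 h substrate loading. Preceded by 5 h compound treatment, 8 concentrations, 1% DMSO in the added solution, of overnight-plated reporter CHO-K1 cells; EC50 by non-linear regression.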

T1 sequence (Q13639 1-387 isoform Q13639-2): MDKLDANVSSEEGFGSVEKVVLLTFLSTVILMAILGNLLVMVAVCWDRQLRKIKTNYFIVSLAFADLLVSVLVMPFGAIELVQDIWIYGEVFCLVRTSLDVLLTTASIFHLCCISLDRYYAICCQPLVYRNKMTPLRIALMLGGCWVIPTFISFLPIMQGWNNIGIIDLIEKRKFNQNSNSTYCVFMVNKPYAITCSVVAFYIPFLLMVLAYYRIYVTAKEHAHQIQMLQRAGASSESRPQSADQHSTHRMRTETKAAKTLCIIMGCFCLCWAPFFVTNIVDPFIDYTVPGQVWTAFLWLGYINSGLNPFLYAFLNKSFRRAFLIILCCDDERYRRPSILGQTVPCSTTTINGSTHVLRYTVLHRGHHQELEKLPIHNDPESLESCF

`CCCc1cc(N2CCC(NC(C)=O)C2)nc(Nc2ccc(Cl)c([N+](=O)[O-])c2)n1` (stereo not drawn) [Example 297, N-{1-[2-(4-chloro-3-nitrophenylamino)-6-propylpyrimidin-4-yl]pyrrolidin-3-yl}acetamide]: the EC50 came out at 0.028 nM. The result for `CCCc1cc(N2CC[C@H](NC(=O)CCc3ccc(O)cc3)C2)nc(Nc2cccc(C#N)c2)n1` [Example 155, (S)-N-{1-[2-(3-cyanophenylamino)-6-propylpyrimidin-4-yl]pyrrolidin-3-yl}-3-(4-hydroxyphenyl)propanamide] reads 0.417 nM; that for `CCCc1cc(N2CC[C@H](NCc3ccc(O)cc3)C2)nc(Nc2cccc(C#N)c2)n1` [Example 91, (S)-3-{4-[3-(4-hydroxybenzylamino)pyrrolidin-1-yl]-6-propylpyrimidin-2-ylamino}benzonitrile], 0.014 nM; that for `CCCc1cc(N2CC[C@H](NC(C)=O)C2)nc(Nc2ccc(C)c(C(F)(F)F)c2)n1` [Example 280], 0.026 nM.

As for `CCCc1cc(N2CC[C@H](NC(=O)Cc3cccs3)C2)nc(Nc2cccc(C#N)c2)n1` [Example 80, (S)-N-{1-[2-(3-cyanophenylamino)-6-propylpyrimidin-4-yl]pyrrolidin-3-yl}-2-(thiophen-2-yl)acetamide], the EC50 came to 0.17 nM. The result for `CCCc1cc(N2CCC(N)C2)nc(Nc2ccc(F)c(C#N)c2)n1` (stereo not drawn) [Example 182] reads 0.036 nM; that for `CCCCc1cc(N2CCC[C@H]2CO)nc(Nc2cccc(C#N)c2)n1` [Example 224], 0.0043 nM. The result for `CCCc1cc(N2CCC[C@H]2CO)nc(Nc2ccc(Cl)c([N+](=O)[O-])c2)n1` [Example 196, (S)-{1-[2-(4-chloro-3-nitrophenylamino)-6-propylpyrimidin-4-yl]pyrrolidin-2-yl}methanol] reads 0.1 nM; that for `CCCc1cc(N2CCC[C@H]2CO)nc(Nc2ccc(C)c(Cl)c2)n1` [Example 206], 0.16 nM; that for `CCCc1cc(N2CC[C@H](NC(=O)CO)C2)nc(Nc2ccc(F)c(N)c2)n1` [Example 478], 0.024 nM. For `CCCc1cc(N2CCC(NC(C)=O)C2)nc(Nc2ccc3[nH]c(C(F)(F)F)nc3c2)n1` (stereo not drawn) [Example 307] the value was 0.24 nM. In the case of `CCCc1cc(N2CC[C@H](NC(C)=O)C2)nc(Nc2cccc([N+](=O)[O-])c2)n1` [Example 247], the EC50 was 0.012 nM. The result for `CCCc1cc(N2CC[C@H](NCCOCc3ccccc3)C2)nc(Nc2cccc(C#N)c2)n1` [Example 145, (S)-3-(4-{3-[2-(benzyloxy)ethylamino]pyrrolidin-1-yl}-6-propylpyrimidin-2-ylamino)benzonitrile] reads 0.046 nM; that for `CCCc1cc(N2CC[C@H](NC)C2)nc(Nc2ccc(F)c(C(F)(F)F)c2)n1` [Example 490], 0.0048 nM.

The compound `CCCc1cc(N2CC[C@H](NC(C)=O)C2)nc(Nc2ccc(Cl)c([N+](=O)[O-])c2)n1` [Example 241, (S)—N-{1-[2-(4-chloro-3-nitrophenylamino)-6-propylpyrimidin-4-yl]pyrrolidin-3-yl}acetamide] yielded a concentration for a half-maximal effect (EC50) of 0.012 nM. For `CCCc1cc(N2CC[C@H](NCCN)C2)nc(Nc2cccc(C#N)c2)n1` [Example 220] the value was 0.07 nM; for `CCCc1cc(N2CCC(NC(C)=O)C2)nc(Nc2cc(Cl)ccc2C)n1` (stereo not drawn) [Example 303], 0.12 nM. For `CCCc1cc(N2CCC(NC(C)=O)C2)nc(Nc2cccc(C(F)(F)F)c2)n1` (stereo not drawn) [Example 301] the value was 0.11 nM; for `CCCCc1cc(N2CC[C@H](NC)C2)nc(Nc2ccc(F)c([N+](=O)[O-])c2)n1` [Example 449], 0.0044 nM; for `CCCCc1cc(N2CC[C@H](NC(C)=O)C2)nc(Nc2ccc(F)c(N)c2)n1` [Example 444], 0.012 nM. For the compound `CCCc1cc(N2CC[C@H](NC(C)=O)C2)nc(Nc2cccc(C(F)(F)F)c2)n1` [Example 244], the EC50 was found to be 0.028 nM.

`CCCc1cc(N2CC[C@H](NCc3ccccc3)C2)nc(Nc2cccc(C#N)c2)n1` [Example 87, (S)-3-{4-[3-(benzylamino)pyrrolidin-1-yl]-6-propylpyrimidin-2-ylamino}benzonitrile] gave a half-maximal effective concentration (EC50) of 0.048 nM. The result for `CCCc1cc(N2CC[C@H](N)C2)nc(Nc2ccc(C)c([N+](=O)[O-])c2)n1` [Example 351, (S)-4-(3-aminopyrrolidin-1-yl)-N-(4-methyl-3-nitrophenyl)-6-propylpyrimidin-2-amine dihydrochloride] reads 0.0035 nM. For `CCCc1cc(N2CC[C@H](N)C2)nc(Nc2ccc(F)c(C(F)(F)F)c2)n1` [Example 357, (S)-4-(3-aminopyrrolidin-1-yl)-N-[4-fluoro-3-(trifluoromethyl)phenyl]-6-propylpyrimidin-2-amine dihydrochloride] the value was 0.0065 nM. For `CCCc1cc(N2CC[C@H](NC(C)=O)C2)nc(Nc2ccc(C)c(C)c2)n1` [Example 281] the value was 0.196 nM; for `CCCc1cc(N2CC[C@H](NC(=O)Cc3ccccc3)C2)nc(Nc2ccc(C)c(C#N)c2)n1` [Example 426], 0.079 nM.

In the case of `CCCc1cc(N2CC[C@H](NC(C)=O)C2)nc(Nc2cc(N)cc(C(F)(F)F)c2)n1` [Example 268], the EC50 turned out to be 0.011 nM. For `CCCc1cc(N2CCC(NC(C)=O)C2)nc(Nc2cccc(C#N)c2)n1` (stereo not drawn) [Example 294, N-{1-[2-(3-cyanophenylamino)-6-propylpyrimidin-4-yl]pyrrolidin-3-yl}acetamide] the value was 0.076 nM; for `CCCc1cc(N2CC[C@H](NC(=O)Cc3ccncc3)C2)nc(Nc2ccc(C)c(C#N)c2)n1` [Example 429], 0.025 nM; for `CCCCc1cc(N2CC[C@H](NC(C)=O)C2)nc(Nc2ccc(N)c([N+](=O)[O-])c2)n1` [Example 337], 0.0026 nM.

As for `CCCc1cc(N2CC[C@H](NC(C)=O)C2)nc(Nc2cccc(C#N)c2)n1` [Example 54, (S)-N-{1-[2-(3-cyanophenylamino)-6-propylpyrimidin-4-yl]pyrrolidin-3-yl}acetamide], the EC50 was 0.032 nM. As to `CCCc1cc(N2CC[C@H](NCC3CC3)C2)nc(Nc2ccc(C)c([N+](=O)[O-])c2)n1` [Example 374, (S)-4-[3-(cyclopropylmethylamino)pyrrolidin-1-yl]-N-(4-methyl-3-nitrophenyl)-6-propylpyrimidin-2-amine], the EC50 came to 0.0027 nM. In turn, `CCCc1cc(N2CCC[C@@H]2CO)nc(Nc2ccc3cc[nH]c3c2)n1` [Example 186] gave an EC50 of 0.382 nM. `CCCCc1cc(N2CC[C@H](NC(C)=O)C2)nc(Nc2ccc(Cl)c([N+](=O)[O-])c2)n1` [Example 438] registered an EC50 of 0.015 nM.

In turn, `CCCc1cc(N2CC[C@H](N)C2)nc(Nc2ccc(N)c(C(F)(F)F)c2)n1` [Example 352] gave a concentration for a half-maximal effect (EC50) of 0.0027 nM.

Compound `CCCCc1cc(N2CC[C@H](NC(C)C)C2)nc(Nc2cccc(C#N)c2)n1` [Example 235] showed an EC50 of 0.0023 nM. In the case of `CCCCc1cc(N2CC[C@H](NCC)C2)nc(Nc2cc(N)cc(C#N)c2)n1` [Example 465], the EC50 is 0.0022 nM. For `CCCc1cc(N2CC[C@H](NC(C)=O)C2)nc(Nc2ccc(N)c(C#N)c2)n1` [Example 260] the value was 0.015 nM. Compound `CCCc1cc(N2CC[C@H](N)C2)nc(Nc2ccc(C)c(C#N)c2)n1` [Example 354, (S)-5-[4-(3-aminopyrrolidin-1-yl)-6-propylpyrimidin-2-ylamino]-2-methylbenzonitrile dihydrochloride] showed a concentration giving a half-maximal response (EC50) of 0.003 nM. Take `CCCc1cc(N2CC[C@H](NC(=O)CO)C2)nc(Nc2ccc(C)c(C(F)(F)F)c2)n1` [Example 481]: the EC50 came out at 0.0093 nM. The result for `CCCc1cc(N2CC[C@H](NCc3cccc(C(F)(F)F)c3)C2)nc(Nc2cccc(C#N)c2)n1` [Example 107, (S)-3-(4-propyl-6-{3-[3-(trifluoromethyl)benzylamino]pyrrolidin-1-yl}pyrimidin-2-ylamino)benzonitrile] reads 0.42 nM. The result for `CCCc1cc(N2CC[C@H](NC(=O)CCC(C)=O)C2)nc(Nc2cccc(C#N)c2)n1` [Example 156, (S)-N-{1-[2-(3-cyanophenylamino)-6-propylpyrimidin-4-yl]pyrrolidin-3-yl}-4-oxopentanamide] reads 0.219 nM; that for `CCCc1cc(N2CC[C@H](NCC(C)C)C2)nc(Nc2cccc(C#N)c2)n1` [Example 96, (S)-3-{4-[3-(isobutylamino)pyrrolidin-1-yl]-6-propylpyrimidin-2-ylamino}benzonitrile], 0.017 nM. The result for `CCCc1cc(N2CCCC2CO)nc(Nc2ccc3cc[nH]c3c2)n1` (stereo not drawn) [Example 187] reads 0.037 nM. In turn, `CCCc1cc(N2CC[C@H](NC3CCC3)C2)nc(Nc2cccc(C#N)c2)n1` [Example 142, (S)-3-{4-[3-(cyclobutylamino)pyrrolidin-1-yl]-6-propylpyrimidin-2-ylamino}benzonitrile] had a half-maximal effective concentration (EC50) of 0.01 nM.

As to `CCCc1cc(N2CC[C@H](NC(C)=O)C2)nc(Nc2ccc(C)c(O)c2)n1` [Example 274], the EC50 came out at 0.087 nM. For `CCCc1cc(N2CC[C@H](N)C2)nc(Nc2cc(N)cc(C(F)(F)F)c2)n1` [Example 342], the half-maximal effective concentration (EC50) was determined as 0.0055 nM. The result for `CCCc1cc(N2CCC[C@H]2CNCc2ccc(F)cc2)nc(Nc2cccc(C#N)c2)n1` [Example 405] reads 0.399 nM; that for `CCCc1cc(N2CCC[C@H]2COC)nc(Nc2cccc(C(F)(F)F)c2)n1` [Example 36, (S)-4-[2-(methoxymethyl)pyrrolidin-1-yl]-6-propyl-N-[3-(trifluoromethyl)phenyl]pyrimidin-2-amine], 0.243 nM; that for `CCCc1cc(N2CC[C@H](NC)C2)nc(Nc2ccc(F)cc2)n1` [Example 22, (S)-N-(4-fluorophenyl)-4-[3-(methylamino)pyrrolidin-1-yl]-6-propylpyrimidin-2-amine], 0.33 nM. Compound `CCCc1cc(N2CC[C@H](NCC3CC3)C2)nc(Nc2cccc([N+](=O)[O-])c2)n1` [Example 375, (S)-4-[3-(cyclopropylmethylamino)pyrrolidin-1-yl]-N-(3-nitrophenyl)-6-propylpyrimidin-2-amine] showed a half-maximal effective concentration (EC50) of 0.0033 nM.

For the origin of these results see patent US9890138B2, “Diaminopyrimidine derivatives and processes for the preparation thereof” (YUHAN CORPORATION, priority 2011, dated 2018).
